According to patent publication US11331369B2, “Endoparasitic depsipeptides” (Zoetis Services LLC, priority 2017, dated 2022):

Each compound was assayed on microfilariae of Dirofilaria immitis (assay: Dirofilaria immitis, Microfilaria (DiMF) In vitro Assay). Conditions: 72 h, read-out: DiMF Minimum Effective Dose (MED), approximately 72 hours incubation, microfilariae assessed for survival or paralysis.
Assay type: cell-based

`CCc1nn(Cc2ccc(C[C@H]3OC(=O)[C@H](CC(C)C)N(C)C(=O)[C@@H](C)OC(=O)[C@H](CC(C)C)N(C)C(=O)[C@@H](Cc4ccccc4)OC(=O)[C@H](CC(C)C)N(C)C(=O)[C@@H](C)OC(=O)[C@H](CC(C)C)N(C)C3=O)cc2)c(CC)c1[N+](=O)[O-]` [Example 2-82, (3S,6R,9S,12R,15S,18R,21S,24R)-6-benzyl-18-(4-((3,5-diethyl-4-nitro-1H-pyrazol-1-yl)methyl)benzyl)-3,9,15,21-tetraisobutyl-4,10,12,16,22,24-hexamethyl-1,7,13,19-tetraoxa-4,10,16,22-tetraazacyclotetracosan-2,5,8,11,14,17,20,23-octaone] and `CC(C)C[C@H]1C(=O)O[C@H](Cc2ccc(Cn3ccc(C(C)(C)C)n3)cc2)C(=O)N(C)[C@@H](CC(C)C)C(=O)O[C@H](C)C(=O)N(C)[C@@H](CC(C)C)C(=O)O[C@H](Cc2ccccc2)C(=O)N(C)[C@@H](CC(C)C)C(=O)O[C@H](C)C(=O)N1C` [Example 2-72, (3S,6R,9S,12R,15S,18R,21S,24R)-6-benzyl-18-(4-((3-(tert-butyl)-1H-pyrazol-1-yl)methyl)benzyl)-3,9,15,21-tetraisobutyl-4,10,12,16,22,24-hexamethyl-1,7,13,19-tetraoxa-4,10,16,22-tetraazacyclotetracosan-2,5,8,11,14,17,20,23-octaone] fall in the same range of minimal effective concentration: 0.01 to 0.1 µM for the first, 0.01 to 0.1 µM for the second.

`CC(C)C[C@H]1C(=O)O[C@H](Cc2ccc(Cn3cc(CO)nn3)cc2)C(=O)N(C)[C@@H](CC(C)C)C(=O)O[C@H](C)C(=O)N(C)[C@@H](CC(C)C)C(=O)O[C@H](Cc2ccccc2)C(=O)N(C)[C@@H](CC(C)C)C(=O)O[C@H](C)C(=O)N1C` [Example 10-19, (3S,6R,9S,12R,15S,18R,21S,24R)-6-benzyl-18-(4-((4-(hydroxymethyl)-1H-1,2,3-triazol-1-yl)methyl)benzyl)-3,9,15,21-tetraisobutyl-4,10,12,16,22,24-hexamethyl-1,7,13,19-tetraoxa-4,10,16,22-tetraazacyclotetracosan-2,5,8,11,14,17,20,23-octaone] and `COc1ccc(OCc2cn(Cc3ccc(C[C@H]4OC(=O)[C@H](CC(C)C)N(C)C(=O)[C@@H](C)OC(=O)[C@H](CC(C)C)N(C)C(=O)[C@@H](Cc5ccccc5)OC(=O)[C@H](CC(C)C)N(C)C(=O)[C@@H](C)OC(=O)[C@H](CC(C)C)N(C)C4=O)cc3)nn2)cc1` [Example 10-22, (3S,6R,9S,12R,15S,18R,21S,24R)-6-benzyl-3,9,15,21-tetraisobutyl-18-(4-((4-((4-methoxyphenoxy)methyl)-1H-1,2,3-triazol-1-yl)methyl)benzyl)-4,10,12,16,22,24-hexamethyl-1,7,13,19-tetraoxa-4,10,16,22-tetraazacyclotetracosan-2,5,8,11,14,17,20,23-octaone] fall in the same range of minimal effective concentration: 0.01 to 0.1 µM for the first, 0.01 to 0.1 µM for the second.

`CC(C)C[C@H]1C(=O)O[C@H](Cc2cccc(Cn3ccnc3CO)c2)C(=O)N(C)[C@@H](CC(C)C)C(=O)O[C@H](C)C(=O)N(C)[C@@H](CC(C)C)C(=O)O[C@H](Cc2ccc(Cn3ccnc3CO)cc2)C(=O)N(C)[C@@H](CC(C)C)C(=O)O[C@H](C)C(=O)N1C` [Example 7-11, (3S,6R,9S,12R,15S,18R,21S,24R)-6-(3-((2-(hydroxymethyl)-1H-imidazol-1-yl)methyl)benzyl)-18-(4-((2-(hydroxymethyl)-1H-imidazol-1-yl)methyl)benzyl)-3,9,15,21-tetraisobutyl-4,10,12,16,22,24-hexamethyl-1,7,13,19-tetraoxa-4,10,16,22-tetraazacyclotetracosan-2,5,8,11,14,17,20,23-octaone] and `CC(C)C[C@H]1C(=O)O[C@H](Cc2ccc(CN3CCSc4ncccc43)cc2)C(=O)N(C)[C@@H](CC(C)C)C(=O)O[C@H](C)C(=O)N(C)[C@@H](CC(C)C)C(=O)O[C@H](Cc2ccccc2)C(=O)N(C)[C@@H](CC(C)C)C(=O)O[C@H](C)C(=O)N1C` [Example 10-35, (3S,6R,9S,12R,15S,18R,21S,24R)-6-benzyl-18-[[4-(2,3-dihydropyrido[2,3-b][1,4]thiazin-1-ylmethyl)phenyl]methyl]-3,9,15,21-tetraisobutyl-4,10,12,16,22,24-hexamethyl-1,7,13,19-tetraoxa-4, 10,16,22-tetrazacyclotetracosane-2,5,8,11,14,17,20,23-octaone] fall in the same range of minimal effective concentration: 0.01 to 0.1 µM for the first, 0.01 to 0.1 µM for the second.

`CC(C)C[C@H]1C(=O)O[C@H](Cc2ccc(Cn3cc(S(=O)(=O)N4CCCC4)cn3)cc2)C(=O)N(C)[C@@H](CC(C)C)C(=O)O[C@H](C)C(=O)N(C)[C@@H](CC(C)C)C(=O)O[C@H](Cc2ccc(Cn3cc(S(=O)(=O)N4CCCC4)cn3)cc2)C(=O)N(C)[C@@H](CC(C)C)C(=O)O[C@H](C)C(=O)N1C` [Example 1b-54, (3S,6R,9S,12R,15S,18R,21S,24R)-3,9,15,21-tetraisobutyl-4,6,10,16,18,22-hexamethyl-12,24-bis(4-((4-(pyrrolidin-1-ylsulfonyl)-1H-pyrazol-1-yl)methyl)benzyl)-1,7,13,19-tetraoxa-4,10,16,22-tetraazacyclotetracosan-2,5,8,11,14,17,20,23-octaone] and `CC(C)C[C@H]1C(=O)O[C@H](Cc2ccc(Cn3cc(OC4CCC4)cn3)cc2)C(=O)N(C)[C@@H](CC(C)C)C(=O)O[C@H](C)C(=O)N(C)[C@@H](CC(C)C)C(=O)O[C@H](Cc2ccc(Cn3cc(OC4CCC4)cn3)cc2)C(=O)N(C)[C@@H](CC(C)C)C(=O)O[C@H](C)C(=O)N1C` [Example 1b-141, (3S,6R,9S,12R,15S,18R,21S,24R)-6,18-bis(4-((4-cyclobutoxy-1H-pyrazol-1-yl)methyl)benzyl)-3,9,15,21-tetraisobutyl-4,10,12,16,22,24-hexamethyl-1,7,13,19-tetraoxa-4,10,16,22-tetraazacyclotetracosan-2,5,8,11,14,17,20,23-octaone] fall in the same range of minimal effective concentration: 0.01 to 0.1 µM for the first, 0.01 to 0.1 µM for the second.

`CCOc1c(C)nn(Cc2ccc(C[C@H]3OC(=O)[C@H](CC(C)C)N(C)C(=O)[C@@H](C)OC(=O)[C@H](CC(C)C)N(C)C(=O)[C@@H](Cc4ccc(Cn5nc(C)c(OCC)c5C)cc4)OC(=O)[C@H](CC(C)C)N(C)C(=O)[C@@H](C)OC(=O)[C@H](CC(C)C)N(C)C3=O)cc2)c1C` [Example 1b-191, (3S,6R,9S,12R,15S,18R,21S,24R)-6,18-bis(4-((4-ethoxy-3,5-dimethyl-1H-pyrazol-1-yl)methyl)benzyl)-3,9,15,21-tetraisobutyl-4,10,12,16,22,24-hexamethyl-1,7,13,19-tetraoxa-4,10,16,22-tetraazacyclotetracosan-2,5,8,11,14,17,20,23-octaone] and `CCc1cnn(Cc2ccc(C[C@H]3OC(=O)[C@H](CC(C)C)N(C)C(=O)[C@@H](C)OC(=O)[C@H](CC(C)C)N(C)C(=O)[C@@H](Cc4ccc(Cn5cc(CC)cn5)cc4)OC(=O)[C@H](CC(C)C)N(C)C(=O)[C@@H](C)OC(=O)[C@H](CC(C)C)N(C)C3=O)cc2)c1` [Example 1b-31, (3S,6R,9S,12R,15S,18R,21S,24R)-6,18-bis[[4-[(4-ethylpyrazol-1-yl)methyl]phenyl]methyl]-3,9,15,21-tetraisobutyl-4, 10,12,16,22,24-hexamethyl-1,7,13,19-tetraoxa-4,10,16,22-tetrazacyclotetracosane-2,5,8,11,14,17,20,23-octaone] fall in the same range of minimal effective concentration: 0.01 to 0.1 µM for the first, 0.01 to 0.1 µM for the second.

`CC(C)C[C@H]1C(=O)O[C@H](Cc2ccc(Cn3cc(OC4COC4)cn3)cc2)C(=O)N(C)[C@@H](CC(C)C)C(=O)O[C@H](C)C(=O)N(C)[C@@H](CC(C)C)C(=O)O[C@H](Cc2ccc(Cn3cc(OC4COC4)cn3)cc2)C(=O)N(C)[C@@H](CC(C)C)C(=O)O[C@H](C)C(=O)N1C` [Example 1b-142, (3S,6R,9S,12R,15S,18R,21S,24R)-3,9,15,21-tetraisobutyl-4,6,10,16,18,22-hexamethyl-12,24-bis(4-((4-(oxetan-3-yloxy)-1H-pyrazol-1-yl)methyl)benzyl)-1,7,13,19-tetraoxa-4,10,16,22-tetraazacyclotetracosan-2,5,8,11,14,17,20,23-octaone] and `CC(C)C[C@H]1C(=O)O[C@H](Cc2ccc(Cn3ccc(N4CCOCC4)n3)cc2)C(=O)N(C)[C@@H](CC(C)C)C(=O)O[C@H](C)C(=O)N(C)[C@@H](CC(C)C)C(=O)O[C@H](Cc2ccc(Cn3ccc(N4CCOCC4)n3)cc2)C(=O)N(C)[C@@H](CC(C)C)C(=O)O[C@H](C)C(=O)N1C` [Example 1b-105, (3S,6R,9S,12R,15S,18R,21S,24R)-3,9,15,21-tetraisobutyl-4,6,10,16,18,22-hexamethyl-12,24-bis(4-((3-morpholino-1H-pyrazol-1-yl)methyl)benzyl)-1,7,13,19-tetraoxa-4,10,16,22-tetraazacyclotetracosan-2,5,8,11,14,17,20,23-octaone] fall in the same range of minimal effective concentration: 0.001 to 0.01 µM for the first, 0.001 to 0.01 µM for the second.

`CC(C)C[C@H]1C(=O)O[C@H](Cc2ccc(Cn3cc(C#CC(C)(C)C)cn3)cc2)C(=O)N(C)[C@@H](CC(C)C)C(=O)O[C@H](C)C(=O)N(C)[C@@H](CC(C)C)C(=O)O[C@H](Cc2ccccc2)C(=O)N(C)[C@@H](CC(C)C)C(=O)O[C@H](C)C(=O)N1C` [Example 2-71, (3S,6R,9S,12R,15S,18R,21S,24R)-6-benzyl-18-(4-((4-(3,3-dimethylbut-1-yn-1-yl)-1H-pyrazol-1-yl)methyl)benzyl)-3,9,15,21-tetraisobutyl-4,10,12,16,22,24-hexamethyl-1,7,13,19-tetraoxa-4,10,16,22-tetraazacyclotetracosan-2,5,8,11,14,17,20,23-octaone] and `CC(C)C[C@H]1C(=O)O[C@H](Cc2ccc(Cn3ccc(-c4ccoc4)n3)cc2)C(=O)N(C)[C@@H](CC(C)C)C(=O)O[C@H](C)C(=O)N(C)[C@@H](CC(C)C)C(=O)O[C@H](Cc2ccc(Cn3ccc(-c4ccoc4)n3)cc2)C(=O)N(C)[C@@H](CC(C)C)C(=O)O[C@H](C)C(=O)N1C` [Example 1b-111, (3S,6R,9S,12R,15S,18R,21S,24R)-6,18-bis(4-((3-(furan-3-yl)-1H-pyrazol-1-yl)methyl)benzyl)-3,9,15,21-tetraisobutyl-4,10,12,16,22,24-hexamethyl-1,7,13,19-tetraoxa-4,10,16,22-tetraazacyclotetracosan-2,5,8,11,14,17,20,23-octaone] fall in the same range of minimal effective concentration: 0.01 to 0.1 µM for the first, 0.01 to 0.1 µM for the second.
